Laboratory results taken from patent US8969080B2, “Remedy for the treatment of cardio-vascular diseases or disorders” (Max-Delbrueck-Centrum fuer Molekulare Medizin, priority 2007, dated 2015).

How the values were obtained:
[1] = system: β-catenin dependent transcription; assay: topflash reporter gene assay in isolated neonatal rat cardiomyocytes; assay type: cell-based; conditions: co-transfection of KLF15; reporter activated by stabilized β-catenin (ΔN-catenin)
Protocol: (§1) The transcription factor Krüppel-like factor (KLF) 15 inhibits β-catenin dependent transcription in isolated cardiomyocytes through a direct interaction of its C-terminal end as shown by topflash reporter gene assay and immunoprecipitation assays (FIG. 9 A). Isolated neonatal rat cardiomyocytes were used as a model system to analyze factors inhibiting β-catenin dependent gene regulation. β-catenin dependent transcription was measured by reporter gene assay. […] Concerning the molecular mechanisms, KLF15 mutants were analyzed concerning their direct protein interaction to β-catenin employing immunoprecipitation analysis (FIG. 9 B). The interacting domain was mapped to the N-terminus between amino acids 1 and 45 (FIG. 9 B), where as the C-terminus was also required for the transcriptional repressive function.
(§2) Inhibition of β-catenin-dependent gene transcription by KLF15. (A) Reporter gene assay in isolated neonatal cardiomyocytes showing activation of the topflash reporter gene by stabilized β-catenin (ΔN-catenin; dN). A dose-dependent inhibition is observed by co-transfection of KLF15.

[2] = biological target: T1, β-catenin (Homo sapiens, UniProt P35222); assay: co-immunoprecipitation of KLF15 and KLF15 mutants with β-catenin; assay type: binding; conditions: full length KLF15
T1 sequence (P35222 1-781): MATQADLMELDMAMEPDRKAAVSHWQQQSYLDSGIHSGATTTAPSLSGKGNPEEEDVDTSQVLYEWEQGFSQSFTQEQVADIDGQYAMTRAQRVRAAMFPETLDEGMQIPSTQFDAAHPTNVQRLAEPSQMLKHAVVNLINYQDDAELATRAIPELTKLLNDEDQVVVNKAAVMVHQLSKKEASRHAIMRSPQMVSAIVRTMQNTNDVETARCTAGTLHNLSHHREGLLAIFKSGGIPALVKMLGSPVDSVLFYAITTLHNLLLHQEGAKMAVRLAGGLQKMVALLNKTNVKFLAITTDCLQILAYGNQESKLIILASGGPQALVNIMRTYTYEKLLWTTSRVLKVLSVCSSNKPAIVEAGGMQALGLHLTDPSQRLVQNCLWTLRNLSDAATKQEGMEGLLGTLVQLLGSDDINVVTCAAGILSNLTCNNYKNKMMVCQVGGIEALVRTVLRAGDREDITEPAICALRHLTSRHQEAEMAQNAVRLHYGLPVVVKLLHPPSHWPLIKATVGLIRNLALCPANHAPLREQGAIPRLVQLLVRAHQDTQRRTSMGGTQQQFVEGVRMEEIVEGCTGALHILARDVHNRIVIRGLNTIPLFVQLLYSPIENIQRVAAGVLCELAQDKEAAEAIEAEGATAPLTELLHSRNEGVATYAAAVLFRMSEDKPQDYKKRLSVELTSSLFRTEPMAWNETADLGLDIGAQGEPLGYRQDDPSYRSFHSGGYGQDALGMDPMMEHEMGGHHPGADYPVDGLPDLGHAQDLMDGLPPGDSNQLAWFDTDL
Protocol: as §1, §2

[3] = system: mice; assay: AngII infusion by minipump in control, β-catenin depleted and β-catenin stabilized mice; assay type: in vivo, mouse
Protocol: After 12 days' AngII infusion at pressure doses (1.4 μg Kg^−1 min^−1), control animals developed hypertrophy as judged by echocardiography, gene regulation, in vivo cross sectional area, and heart/body weight ratio as described before (FIG. 4). From the M-mode echocardiography imaging, a thickened inter-ventricular septum and LV posterior wall after AngII was identified in control animals (FIG. 4A). […] LV wall thickening was identical in β-catenin heart-depleted animals and control littermates after AngII (data not shown). […] Moreover, AngII increased gene expression of several hypertrophy gene markers in both control and b-catenin heart-depleted animals with the exception of β-myosin heavy chain (FIG. 4 C). A lack of β-MHC upregulation in response to stress stimuli might be indicative of adaptive cardiac remodeling preserving LV-function as described before (van Rooij E et al., Circ Res. 2004; 94:18e-26).
The effects of 12 days' AngII infusion in mice with cardiac stabilized β-catenin (β-cat^Δex3) were opposite in kind to those of mice with β-catenin heart-depletion. […] ANP (β-cat^Δex3 0.4±0.15; β-cat^Δex3+AngII 1.03±0.15; p<0.01) and BNP (β-cat^Δex3 0.43±0.24; β-cat^Δex3+AngII 1.4±0.27; p<0.01) expression was induced by AngII but final values were generally lower than in control mice (ANP: CT+AngII 2.3±0.8; BNP: CT+AngII 2.6±0.6).
As expected, fractional shortening increased in control mice after AngII treatment (31.1±1.6% to 36.2±1.6%). However, β-catenin heart-stabilization led to reduced fractional shortening after AngII infusion (34.7±2.9% to 22.4±4.5%, p<0.05). These absolute values in animals aged 10 to 14 weeks are identical to a serial analysis of the age-dependant changes employing the same high-resolution echo techniques as used for these studies. […] These absolute values are similar to other reports, i.e. rates of apoptotic cardiomyocytes after trans-aortic constriction. Moreover, no significant differences concerning fibrosis occurring focally throughout the LV wall was observed when both transgenic models were to their respective controls.
Representative examples of M-mode echocardiograms (not shown), quantification of echocardiographic parameters and heart/body weight from control and β-cat^Δex3-6 mice with and without AngII infusion are shown (n≧6 for each group) (B) Myocyte cross-sectional area increases in both control and β-catenin depleted β-cat^Δex3-6 mice as measured by WGA-FITC staining of cardiac tissue sections and quantification from control or β-cat^Δex3-6 mice with AngII infusion (data not shown). At least 500 cells were measured for each animal, n≧4 mice per group. (C) Significant upregulation of ANP, BNP and α-sarcomeric actin normalized to GAPDH after AngII in control and β-catenin depleted β-cat^Δex3-6 mice. Quantification by real-time PCR of whole heart RNA samples from control (white) or β-cat^Δex3-6 (grey) mice without (open bars) and with (shaded bars) AngII infusion. *=P<0.05, **=P<0.01, ***=P<0.001.
(A) Attenuation of cardiac hypertrophy after AngII in β-catenin stabilized mice is accompanied by significant deterioration of systolic function as measured by fractional shortening (right bar graph). Representative examples of M-mode echocardiograms and quantification from control or β-cat^Δex3 mice with and without AngII infusion. Quantification of echocardiographic wall size and fractional shortening from control or β-cat^Δex3 mice with and without AngII infusion. *=P<0.05, **=P<0.01. (B) Increase of myocyte cross-sectional area after AngII is attenuated in β-catenin stabilized β-cat^Δex3 mice (data not shown). At least 400 cells counted per animal, mice per group. ***=P<0.001. (C) Rates of TUNEL/α-sarcomeric actin/DAPI-positive cardiomyocytes after AngII infusion decrease after β-catenin stabilization in β-cat^Δex3. In addition to the TUNEL-assay, slides were co-stained with α-sarcomeric actin and DAPI in control mice and β-cat^Δex3 mice before and after AngII stimulation (data not shown).

Substance	topflash reporter gene activation [1]	direct protein interaction to β-catenin (immunoprecipitation) [2]	cardiomyocyte size following AngII treatment ([3]; CT animals of the β-catenin stabilization model)	TUNEL-positive cells after AngII ([3]; CT of the β-catenin depletion model, baseline 0.004±0.004)	ANP expression ([3]; CT+AngII)	BNP expression ([3]; CT+AngII)	TUNEL/α-sarcomeric actin/DAPI-positive cells after AngII ([3]; CT+AngII, β-catenin stabilization model)	Axin2 levels (whole heart RNA) ([3]; both control and β-catenin stabilized mice)	cellular cross sectional area ([3]; control mice of the β-catenin depletion model, after 12 days' AngII infusion)	fractional shortening after AngII ([3]; control mice, baseline 31.1±1.6%)	Tbx5 gene expression ([3]; control mice, effect lost in β-catenin stabilized mice)	ANP expression ([3]; β-cat^Δex3+AngII, baseline 0.4±0.15)	BNP expression ([3]; β-cat^Δex3+AngII, baseline 0.43±0.24)	TUNEL-positive cells after AngII ([3]; β-cat^Δex3-6 mice, baseline 0.112±0.044%)	cardiomyocyte size following AngII treatment ([3]; β-cat^Δex3 mice)	TUNEL/α-sarcomeric actin/DAPI-positive cells after AngII ([3]; β-cat^Δex3 mice, baseline 0.058±0.027%)	cellular cross sectional area ([3]; β-catenin depleted mice (β-cat^Δex3-6), after 12 days' AngII infusion 1.4 μg Kg^−1 min^−1)	fractional shortening after AngII ([3]; β-catenin heart-stabilized mice, baseline 34.7±2.9%)
KLF15: transcription factor Krüppel-like factor 15, co-transfected; inhibits β-catenin dependent transcription	inhibit topflash reporter gene activation dose dependendly	interaction																
Angiotensin II (DRVYIHPF; Angiotensin-2; UniProt P01019 25-32, looked up) [AngII, hypertrophic stress stimulus infused by minipump]			9.07×10^7±0.14×10^7	0.09±0.02%	2.3±0.8	2.6±0.6	0.297±0.025%	increased	12.3×10^7±0.19×10^7 a.u.	36.2±1.6%	significantly downregulated	1.03±0.15	1.4±0.27	0.2±0.13%	8.14×10^7±0.14×10^7	0.120±0.049%	12.1×10^7±0.24×10^7 a.u.	22.4±4.5%
